Data set [1] has as its system MART-127-35 epitope specific CTLs. The experiment in a line: IFN-γ response assay (ELISA). In kind it is cell-based, human. The protocol: IFN-γ response assay for the effector cells has been described previously. Briefly, the effector cells were co-cultured with the peptide pulsed (1 μg/ml) T2 cells. After 4-16 h, culture supernatants were harvested and IFN-γ was measured by ELISA as per manufacturer's protocol (R & D Systems, MN).
On the technique in general: In an ELISA, binding on a coated surface is turned into a signal by an enzyme label.

Data set [2] has as its system AIF translocation in MART-127-35 specific CTL. In words: Mitochondrio-nuclear translocation/release of AIF in CTL during AICD. In kind it is cell-based, human. The note with it: CTL restimulated by cognate epitope. The text has this: (§1) FIG. 14. Nuclear translocation of AIF and effect of SP600125 on the AIF release and such translocation. The MART-1 epitope specific CTLs generated in the in vitro CTL generation protocol were restimulated by the cognate epitope or a control epitope in the presence or absence of the JNK inhibitor SP600125. (A) Western blot of heavy membrane faction (HM) and cytosolic fraction (S-100) of control CTL (C) and CTLs restimulated by the cognate peptide (M1). As shown, AIF is released in the cytosol of CTLs encountering the cognate peptide without any release of cytochrome c. (B) Effect of SP600125 on AIF release in CD3 induced AICD in Jurkat cells. As shown, AIF is released without cytochrome c release in these cells and SP600125 interferes with the AIF release. (C) Densitometric analysis of the SP600125 effect on AIF release.
Sub-cellular Fractionation. Sub-cellular fractionation was done according to Gross, et al., with minor modifications. Heavy membrane and light membrane fractions were solublized in RIPA buffer supplemented with protease inhibitors and the proteins extracted from heavy membrane (HM), light membrane (LM) and supernatant (S-100) fractions were analyzed by immuno-blot analysis.
Immunofluorescence microscopy. […] The cells were fixed with 4% para-formaldehyde in PBS and stained with appropriate antibodies for co-localization of proteins by fluorescence microscopy. […]

The test system of data set [3] is c-jun phosphorylation/activation in Jurkat T cells. The experiment in a line: JNK activation assay in PMA/ionomycin stimulated Jurkat cells. Format: cell-based, human. The note with it: PMA (10 ng/ml)/ionomycin (0.5 μM); SP600125 25 μM. How it is done:
FIG. 1. […] (A) Effect of the JNK inhibitor SP600125 on AICD in the MART-127-35 epitope specific CTL. Histogram represents FACS analysis of the percent of MART-127-35 epitope specific CTLs that were tetramer positive and annexin negative after restimulation with MAGE-3271-279 control peptide (M3) pulsed T2 cells or MART-127-35 peptide (M1) pulsed T2 cells either alone or re-stimulated after pre-incubation with JNK inhibitor SP600125, p38-kinase inhibitor SB203580, ERK1/2 inhibitor PD98059 or caspase-inhibitor z-VAD-fink. MAGE-3271-279. (B) JNK activation results in phosphorylation of c-Jun during AICD in CTL that is blocked by SP600125. Immunoblots show analyses of CTL extracts probed with anti-phosphor-c-Jun, anti-c-Jun, and anti-actin antibodies. […] (i) Jurkat cells were treated with PMA+ionomycin in the absence or presence of SP600125 and JNK activation (c-Jun phosphorylation) was assessed with anti-phospho-c-Jun antibody. […] (ii) Jurkat cells were treated with Staurosporine for 1 and 4 hrs in the absence (S) or presence of caspase inhibitor, z-VAD-fmk (CI), JNK inhibitor, SP600125 (SP) or ERK1/2 inhibitor PD98059 (PD) and cleavage of PARP was detected by immunoblotting, using actin as a loading control. […] Percent annexin positive cells in all samples were quantified by FACS analysis and shown below the blot […]

In data set [4] the test system is AIF release in Jurkat cells. In words: AIF release in CD3 induced AICD in Jurkat cells. Format: cell-based, human.
Description: as §1

Data set [5] deals with MART-127-35 epitope specific CTLs. In words: Chromium release microcytotoxicity assay. The note with it: % specific lysis of peptide loaded T2 cells; inhibitor 25 μM. In kind it is cell-based.

Here are results for one compound from US20070003531A1, “Methods for improving immunotherapy by enhancing survival of antigen-specific cytotoxic T lymphocytes” (University of Connecticut, priority 2005, published 2007).

Entries after “also recorded” stand apart in the source; their conditions may differ.

Turning to `O=C1c2ccccc2-c2n[nH]c3cccc1c23` [SP600125, anthra[1,9-cd]pyrazol-6(2H)-one], the “IFN-γ synthesis by rescued CTLs” value in data set [1] (five days continued culture in IL-15 without the inhibitor) was “regained”. For the same compound, the “IFN-γ response by CTLs in presence of inhibitor” value in data set [1] (peptide pulsed T2 cells, inhibitor 25 μM) is listed as “inhibited; also recorded: negatively regulates”. Besides, the “mitochondrio-nuclear translocation/release of AIF in CTL” value in data set [2] is listed as “blocks; also recorded: blocking effect”. The “c-Jun activation (phosphorylation) in Jurkat cells” value in data set [3] is recorded as “inhibitory effect; also recorded: abrogates”. For the same compound, the “AIF release in Jurkat cells” value in data set [4] was “interferes”. Further, the “cytotoxic function of CTLs in presence of inhibitor” value in data set [5] is given as “did not affect; also recorded: does not affect”.
